According to article PMC11999305, “Biochemical characterization of zebrafish Paqr5b” (Biochemistry and Biophysics Reports, 2025):
Read-outs that look alike come from different tables or passages of the source.

Experiments:
[1] = target: T1, zPaqr5b (zebrafish Paqr5b) (Danio rerio, UniProt Q6DC77); assay: competition with [3H]-progesterone, filter binding
T1 construct: full-length CDS in pPICZalphaC; alpha-factor pre-pro signal N-terminal (major purified band 55 kDa keeps it, 45 kDa band Kex2-cut), C-terminal c-Myc and 6xHis kept; Pichia pastoris X-33; DDM-solubilized, purified by Ni-NTA and Sephacryl S-300
T1 sequence (Q6DC77 1-347): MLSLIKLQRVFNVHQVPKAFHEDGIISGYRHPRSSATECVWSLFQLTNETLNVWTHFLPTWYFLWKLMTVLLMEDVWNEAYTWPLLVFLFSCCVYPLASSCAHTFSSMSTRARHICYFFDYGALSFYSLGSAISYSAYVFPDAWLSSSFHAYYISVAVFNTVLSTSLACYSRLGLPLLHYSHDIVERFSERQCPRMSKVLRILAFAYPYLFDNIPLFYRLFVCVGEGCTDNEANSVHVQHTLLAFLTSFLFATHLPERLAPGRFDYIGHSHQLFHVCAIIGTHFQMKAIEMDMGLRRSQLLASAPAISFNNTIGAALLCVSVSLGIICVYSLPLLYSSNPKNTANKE
Excerpt: competition with [3H]-progesterone, filter binding on zPaqr5b (zebrafish Paqr5b)

[2] = target: T1, zPaqr5b (zebrafish Paqr5b); assay: radioligand saturation, filter binding, Scatchard

Structure (SMILES) | IC50 ([1]; read-out: IC50) [nM] | Kd [2] [nM] | IC50 [1] [nM]
C[C@@H](O)[C@@]1(O)CC[C@H]2[C@@H]3CCC4=CC(=O)CC[C@]4(C)[C@H]3CC[C@@]21C [DHP, 17α,20β-dihydroxy-4-pregnen-3-one] | 19.2 | – | –
CC(=O)[C@H]1CC[C@H]2[C@@H]3CCC4=CC(=O)CC[C@]4(C)[C@H]3CC[C@]12C [P4, progesterone] | 5.32 | 4.6 | –
CC(=O)[C@H]1CC[C@H]2[C@@H]3CC[C@H]4C[C@H](O)CC[C@]4(C)[C@H]3CC[C@]12C [ALLO, allopregnanolone] | – | – | 25.2
CC(=O)[C@H]1CC[C@H]2[C@@H]3CC=C4C[C@@H](O)CC[C@]4(C)[C@H]3CC[C@]12C [Preg, pregnenolone] | 38.3 | – | –
